Literature values as cited in patent publication US11825820B2, “Poly-glutamine androgen receptor knock-in mouse models, reagents and methods” (priority 2017, dated 2023).
Read-outs that look alike come from different tables or passages of the source.

Experiments:
NASH = details: 30 mg/day
[1] = 100 mg, 250 mg vs Pioglitazone 45 mg; 28 days
[2] = tested on: patients with NASH/NAFLD scores of 3 to 8
[3] = tested on: patients with nonalcoholic steatohepatitis; details: 24 weeks

CCc1ccc(CCOc2ccc(CC3SC(=O)NC3=O)cc2)nc1 (stereo not drawn) [Pioglitazone]
side effects (NASH): weight gain, edema, bone fractures and increased risk of bladder cancer

COc1cccc(C(=O)COc2ccc(CC3SC(=O)[N-]C3=O)cc2)c1.[K+] (stereo not drawn) [MSCD-0602K]
adiponectin levels vs Pioglitazone [1]: equivalent to Pioglitazone | overall glucose control vs Pioglitazone [1]: equivalent to Pioglitazone

CSc1ccc(C(=O)/C=C/c2cc(C)c(OC(C)(C)C(=O)O)c(C)c2)cc1 [Elafibranor]
anti-inflammatory effects ([2]; Phase IIb claims): Anti-inflammatory effects | insulin sensitivity and glucose homeostasis ([2]; Phase IIb claims): Improved insulin sensitivity and glucose homeostasis | markers of hepatic dysfunction, including liver enzymes ALT, AST, GGT, ALP ([2]; Phase IIb claims): Improvement in markers of hepatic dysfunction | plasma lipids (triglyceride, LDL-C, HDL-C) ([2]; Phase IIb claims): reduction in triglyceride and LDL-C and increased HDL-C levels | RR, Elafibranor vs placebo ([2]; Phase IIb, after withdrawal of NAS <4 patients): 1.9 | positive result, Elafibranor vs placebo ([2]; Phase IIb, after withdrawal of NAS <4 patients, placebo 12.7%, p=0.046): 22.4% | safety profile ([2]; clinical trials, toxicology studies up to two-year carcinogenicity): good safety profile with no unwanted side effects | statistical significance of results across the entire study population ([2]; entire study population incl. NAS <4 patients): prevented Elafibranor from having statistically significant results | histological parameters NASH (steatosis, inflammation, fibrosis) (animal models of NASH): Beneficial effects on histological parameters NASH

Cc1cc(F)c(C(=O)Nc2cccc(-c3nncn3C(C)C)n2)cc1-n1cnc(C2CC2)c1 [selonsertib]
proportion of patients with a one or more stage reduction in fibrosis ([3]; 6-mg selonsertib group, 8 of 27, 95% CI 14-50): 30% | proportion of patients with a one or more stage reduction in fibrosis ([3]; 18-mg selonsertib group, 13 of 30, 95% CI 26-63): 43%

B1: simtuzumab (antibody, chains of the INN, looked up, V domains shown)
VH: QVQLVQSGAEVKKPGASVKVSCKASGYAFTYYLIEWVRQAPGQGLEWIGVINPGSGGTNYNEKFKGRATITADKSTSTAYMELSSLRSEDTAVYFCARNWMNFDYWGQGTTVTVSS
VL: DIVMTQTPLSLSVTPGQPASISCRSSKSLLHSNGNTYLYWFLQKPGQSPQFLIYRMSNLASGVPDRFSGSGSGTDFTLKISRVEAEDVGVYYCMQHLEYPYTFGGGTKVEIK
notes: comparator group (simtuzumab-alone) in the selonsertib Phase 2 study
proportion of patients with a one or more stage reduction in fibrosis ([3]; simtuzumab-alone group, 2 of 10, 95% CI 3-56): 20%
